These results are taken from US10294236B2, “Compounds as rearranged during transfection (RET) inhibitors” (GLAXOSMITHKLINE INTELLECTUAL PROPERTY DEVELOPMENT LIMITED, priority 2014, dated 2019).

Tested on in the first data set: not listed separately
Briefly: Physical stability of the crystalline form on exposure to humidity. It counts as physicochemical. The note with it: exposed to 75% RH for five days. The method, then:
A suspension of 1-(2-(4-ethoxy-6-oxo-1,6-dihydropyridin-3-yl)-4-methylpyrimidin-5-yl)-3-(5-(1,1,1-trifluoro-2-methylpropan-2-yl)isoxazol-3-yl)urea (493.5 mg) in 12.5 mL of acetone was stirred overnight while cycling the temperature between 40° C. and 5° C. Seeds of Compound A free base anhydrate were added at 5° C. The solids were isolated by vacuum filtration and dried overnight in a vacuum oven at 40° C. to give the title compound as a crystalline solid.
With `CCOc1cc(=O)[nH]cc1-c1ncc(NC(=O)Nc2cc(C(C)(C)C(F)(F)F)on2)c(C)n1` [Compound A free base anhydrate, 1-(2-(4-Ethoxy-6-oxo-1,6-dihydropyridin-3-yl)-4-methylpyrimidin-5-yl)-3-(5-(1,1,1-trifluoro-2-methylpropan-2-yl)isoxazol-3-yl)urea], the physical stability result is reported as “physically stable”.

The target in the next data set is T1, Human RET kinase cytoplasmic domain (Homo sapiens, UniProt P07949).
T1 construct: made in house
T1 sequence (P07949 658-1114): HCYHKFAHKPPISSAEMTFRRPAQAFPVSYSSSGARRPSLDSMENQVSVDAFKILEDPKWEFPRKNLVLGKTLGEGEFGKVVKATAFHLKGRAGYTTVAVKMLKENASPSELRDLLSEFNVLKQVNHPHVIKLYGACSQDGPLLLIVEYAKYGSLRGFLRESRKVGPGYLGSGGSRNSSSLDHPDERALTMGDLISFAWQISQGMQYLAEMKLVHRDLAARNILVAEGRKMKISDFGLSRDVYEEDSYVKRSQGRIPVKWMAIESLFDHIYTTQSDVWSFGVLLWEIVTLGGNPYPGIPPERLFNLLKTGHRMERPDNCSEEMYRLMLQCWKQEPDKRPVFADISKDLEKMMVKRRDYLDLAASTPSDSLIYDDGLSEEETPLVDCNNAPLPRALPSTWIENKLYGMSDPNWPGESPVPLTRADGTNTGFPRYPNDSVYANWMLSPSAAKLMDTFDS
Briefly: RET kinase enzymatic assay.
Conditions: not given
It counts as biochemical. The method, boiled down:
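GST-RET, 0.2 nM in 2× enzyme mix (HEPES, CHAPS, BSA, DTT), preincubated with inhibitor 30 min at 23 °C. Reaction for 1 h at 23 °C after adding 2× substrate mix: 20 μM ATP, 20 mM MgCl2, 1 μM biotinylated peptide. Single wells per concentration; IC50 from sigmoidal dose-response fit.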
In turn, `CCOc1cc(-c2ccc(NC(=O)Nc3ccc(OC4(C)COC4)c(C(F)(F)F)c3)c(Cl)n2)c[nH]c1=O` [Example 87] yielded an IC50 of less than 100 nM.

The molecule `CCOc1cc(=O)[nH]cc1-c1ncc(NC(=O)Nc2ccc(C3(CO)CC3)c(C(F)(F)F)c2)c(C)n1` [Example 88] showed an IC50 of less than 100 nM.

In turn, `CCOc1cc(-c2ccc(NC(=O)Nc3ccc(OC4(C)COC4)c(C(F)(F)F)c3)cn2)c[nH]c1=O` [Example 106] showed an IC50 of less than 100 nM.

On to `Cc1[nH]c(=O)ccc1-c1ccc(NC(=O)Nc2ccc(OC3(C)COC3)c(C(F)(F)F)c2)c(F)c1` [Example 40, 1-(2-Fluoro-4-(2-methyl-6-oxo-1,6-dihydropyridin-3-yl)phenyl)-3-(4-((3-methyloxetan-3-yl)oxy)-3-(trifluoromethyl)phenyl)urea], for which the IC50 was less than 100 nM.

In the case of `CCOc1cc(-c2ncc(NC(=O)Nc3cc(C(F)(F)F)cc(S(=O)(=O)NCCN(C)C)c3)c(C)n2)c[nH]c1=O` [Example 174, N-(2-(dimethylamino)ethyl)-3-(3-(2-(5-ethoxy-6-oxo-1,6-dihydropyridin-3-yl)-4-methylpyrimidin-5-yl)ureido)-5-(trifluoromethyl)benzenesulfonamide], the IC50 is less than 100 nM.

As to `CCOc1cc(-c2ccc(NC(=O)Nc3ccc(OC4(C)COC4)c(C(F)(F)F)c3)c(CC)n2)c[nH]c1=O` [Example 102], the IC50 is less than 100 nM.

As to `CC1(Oc2ccc(NC(=O)Nc3ccc(-c4c[nH]c(=O)cc4OC(F)F)cc3F)cc2C(F)(F)F)COC1` [Example 126], the IC50 is less than 100 nM.

Molecule `CCOc1cc(-c2ccc(NC(=O)Nc3ccc(OC4(C)COC4)c(C(F)(F)F)c3)c(OC)n2)c[nH]c1=O` [Example 110] showed an IC50 of less than 100 nM.

Regarding `CCOc1cc(-c2ccc(NC(=O)Nc3ccc(OC(C)(C)COC)c(C(F)(F)F)c3)c(F)c2)c[nH]c1=O` [Example 159], the IC50 is less than 100 nM.

`CCOc1cc(-c2ccc(NC(=O)Nc3cnc(C(C)(C)O)c(C(F)(F)F)c3)c(F)c2)c[nH]c1=O` [Example 89] showed an IC50 of less than 100 nM.

On to `O=C(Nc1ccc(-c2ccc(=O)[nH]c2)cc1)Nc1ccc(CN2CCNCC2)c(C(F)(F)F)c1` [Example 17, 1-(4-(6-Oxo-1,6-dihydropyridin-3-yl)phenyl)-3-(4-(piperazin-1-ylmethyl)-3-(trifluoromethyl)phenyl)urea], for which the IC50 is less than 100 nM.

In turn, `CCOc1cc(-c2ncc(NC(=O)Nc3cc(-n4cnc(C)c4)cc(C(F)(F)F)c3)c(C)n2)c[nH]c1=O` [Example 57, 1-(2-(5-Ethoxy-6-oxo-1,6-dihydropyridin-3-yl)-4-methylpyrimidin-5-yl)-3-(3-(4-methyl-1H-imidazol-1-yl)-5-(trifluoromethyl)phenyl)urea] gave an IC50 of less than 100 nM.

`CCOc1cc(-c2ccc(NC(=O)Nc3ccc(OC4(C)COC4)c(C(F)(F)F)c3)cc2F)c[nH]c1=O` [Example 133] displayed an IC50 of less than 100 nM.
